Measurements as given in publication PMC5362750, “Discovery of Potent, Selective, and Orally Bioavailable Small-Molecule Modulators of the Mediator Complex-Associated Kinases CDK8 and CDK19” (Journal of Medicinal Chemistry, 2016).

Key:
EPHB4 = target: T1, EPHB4 (Homo sapiens, UniProt P54760); assay: Kinase panel (Millipore); type: biochemical; conditions: 1 µM, ATP at Km
T1 construct: purchased Millipore (KinaseProfiler) kinase panel

WNK2 = target: T2, WNK2 (Homo sapiens, UniProt Q9Y3S1); assay: Kinase panel (Millipore); type: biochemical; conditions: 1 µM, ATP at Km
T2 construct: purchased Millipore (KinaseProfiler) kinase panel

PKCALPHA = PKCALPHA (Homo sapiens, UniProt P17252); assay: Kinase panel (Millipore); type: biochemical; conditions: 1 µM, ATP at Km
CAMKI = CAMKI (Homo sapiens, UniProt Q14012); assay: Kinase panel (Millipore); type: biochemical; conditions: 1 µM, ATP at Km
PKA = PKA (Homo sapiens, UniProt P17612); assay: Kinase panel (Millipore); type: biochemical; conditions: 1 µM, ATP at Km
MLCK = assay: Kinase panel (Millipore); type: biochemical; conditions: 1 µM, ATP at Km
FAK = FAK (Homo sapiens, UniProt Q05397); assay: Kinase panel (Millipore); type: biochemical; conditions: 1 µM, ATP at Km
NEK2 = NEK2 (Homo sapiens, UniProt P51955); assay: Kinase panel (Millipore); type: biochemical; conditions: 1 µM, ATP at Km
GRK6 = target: T3, GRK6 (Homo sapiens, UniProt P43250); assay: Kinase panel (Millipore); type: biochemical; conditions: 1 µM, ATP at Km
T3 construct: purchased Millipore (KinaseProfiler) kinase panel

PKCBETAI = PKCBETAI (Homo sapiens, UniProt P05771); assay: Kinase panel (Millipore); type: biochemical; conditions: 1 µM, ATP at Km
FMS(Y969C) = FMS(Y969C) (Homo sapiens, UniProt P07333, Y969C); conditions: 1 µM, ATP at Km
PIM-1 = PIM-1 (Homo sapiens, UniProt P11309); assay: Kinase panel (Millipore); type: biochemical; conditions: 1 µM, ATP at Km
MRCKBETA = target: T4, MRCKBETA (Homo sapiens, UniProt Q9Y5S2); assay: Kinase panel (Millipore); type: biochemical; conditions: 1 µM, ATP at Km
T4 construct: purchased Millipore (KinaseProfiler) kinase panel

PDK1 = PDK1 (Homo sapiens, UniProt O15530); assay: Kinase panel (Millipore); type: biochemical; conditions: 1 µM, ATP at Km
PLK3 = target: T5, PLK3 (Homo sapiens, UniProt Q9H4B4); assay: Kinase panel (Millipore); type: biochemical; conditions: 1 µM, ATP at Km
T5 construct: purchased Millipore (KinaseProfiler) kinase panel

PI3K GAMMA = PI3K GAMMA (Homo sapiens, UniProt P48736); assay: Kinase panel (Millipore); type: biochemical; conditions: 1 µM, ATP at Km
BB3 (h) = target: T6, BB3 (h) (Homo sapiens, UniProt P32247); assay: CEREP binding assay; conditions: agonist radioligand, read-out: % Inhibition of Control Specific Binding
T6 construct: purchased Millipore (KinaseProfiler) kinase panel

BLK = BLK (Homo sapiens, UniProt P51451); assay: Kinase panel (Millipore); type: biochemical; conditions: 1 µM, ATP at Km
MKK7BETA = target: T7, MKK7BETA (Homo sapiens, UniProt O14733); assay: Kinase panel (Millipore); type: biochemical; conditions: 1 µM, ATP at Km
T7 construct: purchased Millipore (KinaseProfiler) kinase panel

SGK = target: T8, SGK (Homo sapiens, UniProt O00141); assay: Kinase panel (Millipore); type: biochemical; conditions: 1 µM, ATP at Km
T8 construct: purchased Millipore (KinaseProfiler) kinase panel

TRKB = target: T9, TRKB (Homo sapiens, UniProt Q16620); assay: Kinase panel (Millipore); type: biochemical; conditions: 1 µM, ATP at Km
T9 construct: purchased Millipore (KinaseProfiler) kinase panel

CHK2(R145W) = CHK2(R145W) (Homo sapiens, UniProt O96017, R145W); conditions: 1 µM, ATP at Km
EPHA1 = target: T10, EPHA1 (Homo sapiens, UniProt P21709); assay: Kinase panel (Millipore); type: biochemical; conditions: 1 µM, ATP at Km
T10 construct: purchased Millipore (KinaseProfiler) kinase panel

RET(V804L) = RET(V804L) (Homo sapiens, UniProt P07949, V804L); conditions: 1 µM, ATP at Km
BRSK2 = target: T11, BRSK2 (Homo sapiens, UniProt Q8IWQ3); assay: Kinase panel (Millipore); type: biochemical; conditions: 1 µM, ATP at Km
T11 construct: purchased Millipore (KinaseProfiler) kinase panel

CKIT(V654A) = CKIT(V654A) (Homo sapiens, UniProt P10721, V654A); conditions: 1 µM, ATP at Km
IRAK1 = IRAK1 (Homo sapiens, UniProt P51617); assay: Kinase panel (Millipore); type: biochemical; conditions: 1 µM, ATP at Km
BRK = target: T12, BRK (Homo sapiens, UniProt Q13882); assay: Kinase panel (Millipore); type: biochemical; conditions: 1 µM, ATP at Km
T12 construct: purchased Millipore (KinaseProfiler) kinase panel

in vivo = conditions: female, dog, 0.2 mg/kg
NEK3 = target: T13, NEK3 (Homo sapiens, UniProt P51956); assay: Kinase panel (Millipore); type: biochemical; conditions: 1 µM, ATP at Km
T13 construct: purchased Millipore (KinaseProfiler) kinase panel

RET(V804M) = RET(V804M) (Homo sapiens, UniProt P07949, V804M); conditions: 1 µM, ATP at Km
RIPK2 = RIPK2 (Homo sapiens, UniProt O43353); assay: Kinase panel (Millipore); type: biochemical; conditions: 1 µM, ATP at Km
V2 (h) = target: T14, V2 (h) (Homo sapiens, UniProt P30518); assay: CEREP binding assay; conditions: agonist radioligand, read-out: % Inhibition of Control Specific Binding
T14 construct: CEREP

PI3K DELTA = PI3K DELTA (Homo sapiens, UniProt O00329); assay: Kinase panel (Millipore); type: biochemical; conditions: 1 µM, ATP at Km
glucagon (h) = glucagon (h) (Homo sapiens, UniProt P47871); assay: biochemical; conditions: read-out: % Inhibition of Control Specific Binding
MC3 (h) = target: T15, MC3 (h) (Homo sapiens, UniProt P41968); assay: CEREP binding assay; conditions: agonist radioligand, read-out: % Inhibition of Control Specific Binding
T15 construct: purchased Millipore (KinaseProfiler) kinase panel

RSE = target: T16, RSE (Homo sapiens, UniProt Q06418); assay: Kinase panel (Millipore); type: biochemical; conditions: 1 µM, ATP at Km
T16 construct: purchased Millipore (KinaseProfiler) kinase panel

HIPK2 = target: T17, HIPK2 (Homo sapiens, UniProt Q9H2X6); assay: Kinase panel (Millipore); type: biochemical; conditions: 1 µM, ATP at Km
T17 construct: purchased Millipore (KinaseProfiler) kinase panel

FLT4 = target: T18, FLT4 (Homo sapiens, UniProt P35916); assay: Kinase panel (Millipore); type: biochemical; conditions: 1 µM, ATP at Km
T18 construct: purchased Millipore (KinaseProfiler) kinase panel

HASPIN = target: T19, HASPIN (Homo sapiens, UniProt Q8TF76); assay: Kinase panel (Millipore); type: biochemical; conditions: 1 µM, ATP at Km
T19 construct: purchased Millipore (KinaseProfiler) kinase panel

PKBALPHA = PKBALPHA (Homo sapiens, UniProt P31749); assay: Kinase panel (Millipore); type: biochemical; conditions: 1 µM, ATP at Km
CDK9/CYCLINT1 = CDK9/CYCLINT1 (Homo sapiens, UniProt P50750); conditions: 1 µM, ATP at Km
ROS = target: T20, ROS (Homo sapiens, UniProt P08922); assay: Kinase panel (Millipore); type: biochemical; conditions: 1 µM, ATP at Km
T20 construct: purchased Millipore (KinaseProfiler) kinase panel

T17 sequence (Q9H2X6 whole entry): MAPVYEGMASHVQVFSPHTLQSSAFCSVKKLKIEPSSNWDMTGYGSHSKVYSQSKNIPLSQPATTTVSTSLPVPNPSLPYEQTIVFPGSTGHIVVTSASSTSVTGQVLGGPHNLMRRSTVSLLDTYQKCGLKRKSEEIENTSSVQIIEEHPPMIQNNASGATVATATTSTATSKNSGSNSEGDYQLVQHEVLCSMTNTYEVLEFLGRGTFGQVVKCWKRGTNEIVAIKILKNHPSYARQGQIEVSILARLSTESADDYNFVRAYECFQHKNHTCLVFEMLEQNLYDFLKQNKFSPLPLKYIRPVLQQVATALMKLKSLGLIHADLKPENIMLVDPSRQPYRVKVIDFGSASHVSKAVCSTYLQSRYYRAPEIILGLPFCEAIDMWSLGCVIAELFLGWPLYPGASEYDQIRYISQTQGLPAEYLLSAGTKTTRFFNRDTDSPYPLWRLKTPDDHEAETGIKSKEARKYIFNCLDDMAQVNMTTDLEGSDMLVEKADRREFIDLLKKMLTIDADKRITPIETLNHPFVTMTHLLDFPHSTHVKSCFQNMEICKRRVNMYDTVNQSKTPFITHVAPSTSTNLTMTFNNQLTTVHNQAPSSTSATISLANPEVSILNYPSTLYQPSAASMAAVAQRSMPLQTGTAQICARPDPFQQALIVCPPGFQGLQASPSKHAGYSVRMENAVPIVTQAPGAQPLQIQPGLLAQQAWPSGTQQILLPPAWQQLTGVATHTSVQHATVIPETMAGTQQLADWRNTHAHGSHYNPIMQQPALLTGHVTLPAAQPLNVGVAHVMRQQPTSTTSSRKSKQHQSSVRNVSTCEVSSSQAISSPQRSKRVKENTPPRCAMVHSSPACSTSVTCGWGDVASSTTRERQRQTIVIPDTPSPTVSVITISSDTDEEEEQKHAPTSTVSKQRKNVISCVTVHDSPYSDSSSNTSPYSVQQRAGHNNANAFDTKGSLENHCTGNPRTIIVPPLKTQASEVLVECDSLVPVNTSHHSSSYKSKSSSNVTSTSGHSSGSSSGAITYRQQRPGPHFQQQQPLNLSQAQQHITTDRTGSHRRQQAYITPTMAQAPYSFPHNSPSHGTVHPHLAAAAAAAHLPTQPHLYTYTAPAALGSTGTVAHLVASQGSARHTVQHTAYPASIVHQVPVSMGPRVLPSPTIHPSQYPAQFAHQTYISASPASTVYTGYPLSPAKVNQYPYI
RET(V804L), sequence (P07949 658-1114 V804L limits assumed): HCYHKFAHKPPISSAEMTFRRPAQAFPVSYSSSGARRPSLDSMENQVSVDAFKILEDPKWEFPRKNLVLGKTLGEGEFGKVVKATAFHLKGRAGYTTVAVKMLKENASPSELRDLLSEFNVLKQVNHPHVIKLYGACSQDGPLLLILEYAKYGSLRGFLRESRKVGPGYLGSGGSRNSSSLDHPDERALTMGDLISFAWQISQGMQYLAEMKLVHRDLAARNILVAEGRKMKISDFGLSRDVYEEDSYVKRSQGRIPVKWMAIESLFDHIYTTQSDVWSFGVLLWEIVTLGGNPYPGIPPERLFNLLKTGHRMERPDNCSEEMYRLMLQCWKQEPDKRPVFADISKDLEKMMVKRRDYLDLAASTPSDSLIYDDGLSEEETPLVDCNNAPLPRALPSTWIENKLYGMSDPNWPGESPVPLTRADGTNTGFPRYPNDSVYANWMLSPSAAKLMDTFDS
PKBALPHA, sequence (P31749 whole entry): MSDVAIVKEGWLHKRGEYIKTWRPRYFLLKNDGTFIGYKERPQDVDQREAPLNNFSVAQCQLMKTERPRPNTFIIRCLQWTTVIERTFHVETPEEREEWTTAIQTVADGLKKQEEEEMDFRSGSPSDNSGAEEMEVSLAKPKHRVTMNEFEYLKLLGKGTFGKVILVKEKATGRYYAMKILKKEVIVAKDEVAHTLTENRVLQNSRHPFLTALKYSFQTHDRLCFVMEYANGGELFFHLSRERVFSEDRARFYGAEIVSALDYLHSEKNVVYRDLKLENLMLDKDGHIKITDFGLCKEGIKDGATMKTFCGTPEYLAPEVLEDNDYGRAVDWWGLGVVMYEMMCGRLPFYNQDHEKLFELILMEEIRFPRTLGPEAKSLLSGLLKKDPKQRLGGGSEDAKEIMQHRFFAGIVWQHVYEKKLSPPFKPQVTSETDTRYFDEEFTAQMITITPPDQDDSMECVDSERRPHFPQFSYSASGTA
T1 sequence (P54760 16-987): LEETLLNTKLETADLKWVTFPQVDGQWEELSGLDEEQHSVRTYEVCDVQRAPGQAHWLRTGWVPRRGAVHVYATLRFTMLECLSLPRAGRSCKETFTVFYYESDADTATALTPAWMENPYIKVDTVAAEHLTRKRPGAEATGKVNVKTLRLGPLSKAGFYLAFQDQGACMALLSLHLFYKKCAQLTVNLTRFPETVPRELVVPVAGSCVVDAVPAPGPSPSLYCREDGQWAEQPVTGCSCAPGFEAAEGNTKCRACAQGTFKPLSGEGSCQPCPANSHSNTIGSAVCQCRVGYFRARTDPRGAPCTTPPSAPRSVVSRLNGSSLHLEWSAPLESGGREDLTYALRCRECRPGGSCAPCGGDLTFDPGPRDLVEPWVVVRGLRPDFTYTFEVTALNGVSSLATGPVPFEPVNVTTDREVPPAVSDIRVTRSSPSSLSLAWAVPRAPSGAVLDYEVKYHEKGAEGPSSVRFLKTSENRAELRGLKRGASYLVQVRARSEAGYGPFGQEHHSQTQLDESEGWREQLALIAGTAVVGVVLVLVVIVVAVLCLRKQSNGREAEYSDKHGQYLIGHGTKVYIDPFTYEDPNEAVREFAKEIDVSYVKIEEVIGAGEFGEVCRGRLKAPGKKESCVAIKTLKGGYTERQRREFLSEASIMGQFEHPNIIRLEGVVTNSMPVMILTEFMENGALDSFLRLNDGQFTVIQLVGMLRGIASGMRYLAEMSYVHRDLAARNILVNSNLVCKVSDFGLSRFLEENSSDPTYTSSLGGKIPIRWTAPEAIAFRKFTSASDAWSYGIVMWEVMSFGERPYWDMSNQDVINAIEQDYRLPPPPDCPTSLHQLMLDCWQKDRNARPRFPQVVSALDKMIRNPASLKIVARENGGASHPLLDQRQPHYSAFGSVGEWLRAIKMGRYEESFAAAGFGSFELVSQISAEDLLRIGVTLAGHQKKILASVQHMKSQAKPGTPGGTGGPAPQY
T9 sequence (Q16620 32-822): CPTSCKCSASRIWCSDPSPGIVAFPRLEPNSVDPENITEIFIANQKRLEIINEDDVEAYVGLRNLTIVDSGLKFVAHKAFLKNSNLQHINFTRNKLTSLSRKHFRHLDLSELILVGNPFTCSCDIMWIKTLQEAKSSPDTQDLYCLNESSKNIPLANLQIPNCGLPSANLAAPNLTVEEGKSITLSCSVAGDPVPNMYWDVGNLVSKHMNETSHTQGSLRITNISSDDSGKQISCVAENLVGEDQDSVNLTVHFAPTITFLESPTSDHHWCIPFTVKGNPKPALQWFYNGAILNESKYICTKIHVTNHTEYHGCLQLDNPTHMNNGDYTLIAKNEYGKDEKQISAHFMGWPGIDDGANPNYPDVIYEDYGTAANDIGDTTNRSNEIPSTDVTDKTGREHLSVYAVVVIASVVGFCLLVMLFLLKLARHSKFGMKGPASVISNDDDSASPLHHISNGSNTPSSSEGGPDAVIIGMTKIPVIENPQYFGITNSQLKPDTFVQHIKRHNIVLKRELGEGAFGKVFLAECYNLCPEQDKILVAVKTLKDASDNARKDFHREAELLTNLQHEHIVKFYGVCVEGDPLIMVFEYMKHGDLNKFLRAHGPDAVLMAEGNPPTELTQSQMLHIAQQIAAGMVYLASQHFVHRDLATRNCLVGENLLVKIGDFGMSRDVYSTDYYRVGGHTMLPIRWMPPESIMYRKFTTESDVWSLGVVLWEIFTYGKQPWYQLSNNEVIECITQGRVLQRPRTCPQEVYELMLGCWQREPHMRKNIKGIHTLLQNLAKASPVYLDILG
CDK9/CYCLINT1, sequence (P50750 whole entry): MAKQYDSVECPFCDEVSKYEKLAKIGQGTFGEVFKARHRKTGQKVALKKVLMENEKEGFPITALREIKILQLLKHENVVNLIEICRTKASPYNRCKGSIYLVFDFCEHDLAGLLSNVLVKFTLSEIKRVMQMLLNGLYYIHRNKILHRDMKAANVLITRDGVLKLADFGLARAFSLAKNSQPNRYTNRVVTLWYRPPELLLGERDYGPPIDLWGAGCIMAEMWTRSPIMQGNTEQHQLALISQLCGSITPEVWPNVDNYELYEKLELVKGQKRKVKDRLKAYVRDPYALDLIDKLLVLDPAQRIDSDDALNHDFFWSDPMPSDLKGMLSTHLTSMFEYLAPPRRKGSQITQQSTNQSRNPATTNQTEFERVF
CDK9/CYCLINT1, sequence (O60563 whole entry partner): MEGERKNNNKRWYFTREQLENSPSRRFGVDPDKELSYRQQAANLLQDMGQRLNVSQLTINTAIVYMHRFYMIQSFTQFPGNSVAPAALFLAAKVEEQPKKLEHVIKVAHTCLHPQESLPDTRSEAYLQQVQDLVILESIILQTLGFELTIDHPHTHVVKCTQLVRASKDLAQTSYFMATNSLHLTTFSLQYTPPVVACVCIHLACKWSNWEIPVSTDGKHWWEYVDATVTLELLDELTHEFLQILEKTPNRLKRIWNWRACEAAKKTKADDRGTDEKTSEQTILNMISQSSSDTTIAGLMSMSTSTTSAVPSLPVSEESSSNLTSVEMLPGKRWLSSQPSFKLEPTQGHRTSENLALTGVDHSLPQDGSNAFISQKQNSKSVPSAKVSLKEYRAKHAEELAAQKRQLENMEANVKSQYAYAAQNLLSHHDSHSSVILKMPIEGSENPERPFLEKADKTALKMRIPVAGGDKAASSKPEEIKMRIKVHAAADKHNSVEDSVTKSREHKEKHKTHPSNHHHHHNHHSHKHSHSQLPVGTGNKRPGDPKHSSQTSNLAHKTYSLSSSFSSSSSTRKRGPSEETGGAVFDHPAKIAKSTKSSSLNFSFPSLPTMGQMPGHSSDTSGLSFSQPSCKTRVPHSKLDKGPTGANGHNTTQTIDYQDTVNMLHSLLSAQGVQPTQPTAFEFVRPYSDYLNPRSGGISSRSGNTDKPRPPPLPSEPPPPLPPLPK
RET(V804M), sequence (P07949 658-1114 V804M limits assumed): as the sequence (P07949 658-1114 V804L limits assumed) above, with L147M counted along it

SMILES: Cn1ncc2cc(-c3cnc(N)c(Cl)c3N3CCC4(CCNC4=O)CC3)ccc21 [Compound 109, 8-(2-Amino-3-chloro-5-(1-methyl-1H-indazol-5-yl)pyridin-4-yl)-2,8-diazaspiro[4.5]decan-1-one]
- % effect (EPHB4): -3%
- % effect (WNK2): 27%
- % effect (PKCALPHA): 5%
- % effect (CAMKI): -3%
- % effect (PKA): 25%
- % effect (MLCK): 3%
- % effect (FAK): 6%
- % effect (NEK2): 4%
- % effect (GRK6): 5%
- % effect (PKCBETAI): -4%
- % effect (FMS(Y969C)): -43%
- % effect (PIM-1): 2%
- % effect (MRCKBETA): -35%
- % effect (PDK1): 1%
- % effect (PLK3): -2%
- % effect (PI3K GAMMA): 7%
- inhibition at 10 µM (BB3 (h)): -11%
- % effect (BLK): 11%
- % effect (MKK7BETA): -15%
- % effect (SGK): 0%
- % effect (TRKB): -11%
- % effect (CHK2(R145W)): 7%
- % effect (EPHA1): 4%
- % effect (RET(V804L)): -7%
- % effect (BRSK2): 0%
- % effect (CKIT(V654A)): 9%
- % effect (IRAK1): 15%
- % effect (BRK): 13%
- Vd (in vivo): 1.4 L/kg
- clearance (in vivo; iv): 17.8 mL/min/kg
- % effect (NEK3): -11%
- % effect (RET(V804M)): 6%
- % effect (RIPK2): 1%
- inhibition at 10 µM (V2 (h)): 2%
- % effect (PI3K DELTA): 6%
- inhibition at 10 µM (glucagon (h)): -7%
- inhibition at 10 µM (MC3 (h)): -24%
- % effect (RSE): 1%
- % effect (HIPK2): 2%
- % effect (FLT4): -38%
- % effect (HASPIN): 26%
- % effect (PKBALPHA): 3%
- % effect (CDK9/CYCLINT1): -8%
- % effect (ROS): 8%
